Test results reported in ChEMBL document CHEMBL1201862, “PubChem BioAssay data set” (2004).
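Where inhibition never reached the appropriate level, the endpoint shown equals the highest concentration tested. Otherwise, values were interpolated linearly from a five-concentration, 48-hour dose response in 96-well plates. Abbreviation: GI50, concentration required for 50% inhibition of growth.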 Active and inactive are the calls of the source. Cut-off read from the data, not from the text of the source: active = GI50 up to about 1.1 µM and inactive = higher.

What was measured:
Test in all cases: NCI tumour cell line growth inhibition, 48 h
[1] = test system: COLO 205
[2] = test system: SW-620
[3] = test system: HOP-92
[4] = test system: SK-MEL-2
[5] = test system: OVCAR-8
[6] = test system: KM12
[7] = test system: SK-OV-3
[8] = test system: DU-145
[9] = test system: RPMI-8226
[10] = test system: A549
[11] = test system: UO-31
[12] = test system: HCT-15
[13] = test system: MCF7
[14] = test system: OVCAR-4
[15] = test system: SK-MEL-28
[16] = test system: A498
[17] = test system: UACC-257
[18] = test system: PC-3
[19] = test system: OVCAR-3
[20] = test system: SNB-75

| SMILES | GI50 [1] | GI50 [2] | GI50 [3] | GI50 [4] | GI50 [5] | GI50 [6] | GI50 [7] | GI50 [8] | GI50 [9] | GI50 [10] | GI50 [11] | GI50 [12] [µM] | GI50 [13] | GI50 [14] | GI50 [15] | GI50 [16] | GI50 [17] | GI50 [18] | GI50 [19] | GI50 [20] |
| --- | --- | --- | --- | --- | --- | --- | --- | --- | --- | --- | --- | --- | --- | --- | --- | --- | --- | --- | --- | --- |
| CC(C)(C)OC/C=C1\C(=O)O[C@H]2C[C@@H](O[Si](C)(C)C(C)(C)C)C[C@@H]12 | > 100 µM (inactive) | > 100 µM (inactive) | 36.4 µM (inactive) | > 100 µM (inactive) | 81.1 µM (inactive) | 67.9 µM (inactive) | > 100 µM (inactive) | > 100 µM (inactive) | 46 µM (inactive) | 69.2 µM (inactive) | 53.8 µM (inactive) | > 100 | 35.4 µM (inactive) | 92.3 µM (inactive) | > 100 µM (inactive) | > 100 µM (inactive) | 62.4 µM (inactive) | 66.5 µM (inactive) | 49.9 µM (inactive) | 63.7 µM (inactive) |
| COc1cc(OC)c2nc3occc3c(OC)c2c1 | > 100 µM (inactive) | > 100 µM (inactive) | > 100 µM (inactive) | > 100 µM (inactive) | 99.5 µM (inactive) | > 100 µM (inactive) | 97.5 µM (inactive) | > 100 µM (inactive) | 27.7 µM (inactive) | > 100 µM (inactive) | 33.7 µM (inactive) | 30.4 | > 100 µM (inactive) | 37.1 µM (inactive) | > 100 µM (inactive) | > 100 µM (inactive) | > 100 µM (inactive) | > 100 µM (inactive) | > 100 µM (inactive) | 67.8 µM (inactive) |
| N=C(N)N/N=C(\c1ccc(F)cc1)c1ccc(C(F)(F)F)cc1 | 0.294 µM (active) | 0.254 µM (active) | 1.46 µM (inactive) | 1.24 µM (inactive) | 0.376 µM (active) | 0.203 µM (active) | 0.817 µM (active) | 0.538 µM (active) | 0.376 µM (active) | 0.412 µM (active) | 0.53 µM (active) | 0.294 | 0.242 µM (active) | 1.1 µM (active) | 0.94 µM (active) | < 0.01 µM (active) | 1.16 µM (inactive) | 0.357 µM (active) | 0.33 µM (active) | 1.75 µM (inactive) |
| O=[N+]([O-])c1ccc(N2N=C(c3ccc4ccccc4c3O)CC2c2ccc(Cl)cc2)c([N+](=O)[O-])c1 (stereo not given) | 29.6 µM (inactive) | 29.9 µM (inactive) | 33 µM (inactive) | 33.6 µM (inactive) | 37.3 µM (inactive) | 21.8 µM (inactive) | 80.2 µM (inactive) | 48.8 µM (inactive) | 12.8 µM (inactive) | 30.4 µM (inactive) | > 100 µM (inactive) | 30.3 | 20.3 µM (inactive) | 55.1 µM (inactive) | 41.8 µM (inactive) | 27.2 µM (inactive) | 32.1 µM (inactive) | 23.8 µM (inactive) | 24.8 µM (inactive) | 73.5 µM (inactive) |
| COc1cc(C)cc2c(-c3c(O)cc(O)c4c3C[C@H](C)N[C@H]4C)cc(-c3cc(-c4c(O)cc(O)c5c4C[C@H](C)N[C@H]5C)c4cc(C)cc(OC)c4c3O)c(O)c12 | > 100 µM (inactive) | > 100 µM (inactive) | > 100 µM (inactive) | > 100 µM (inactive) | > 100 µM (inactive) | 56.2 µM (inactive) | > 100 µM (inactive) | > 100 µM (inactive) | 83.4 µM (inactive) | > 100 µM (inactive) | > 100 µM (inactive) | > 100 | > 100 µM (inactive) | > 100 µM (inactive) | > 100 µM (inactive) | > 100 µM (inactive) | > 100 µM (inactive) | > 100 µM (inactive) | > 100 µM (inactive) | > 100 µM (inactive) |
| COc1cc2c(cc1OC)C(=O)/C(=C/c1ccccc1)C2 | > 100 µM (inactive) | 94 µM (inactive) | > 70 µM (inactive) | > 100 µM (inactive) | > 100 µM (inactive) | 60.8 µM (inactive) | > 100 µM (inactive) | > 94.2 µM (inactive) | 19.1 µM (inactive) | > 100 µM (inactive) | > 83.8 µM (inactive) | > 82 | > 71.3 µM (inactive) | > 85.5 µM (inactive) | > 100 µM (inactive) | 4.54 µM (inactive) | > 100 µM (inactive) | > 58.9 µM (inactive) | > 100 µM (inactive) | > 39.4 µM (inactive) |
| N#Cc1sc2nc3ccccc3n2c1N | 78.7 µM (inactive) | 92.5 µM (inactive) | > 100 µM (inactive) | 26.1 µM (inactive) | 78.2 µM (inactive) | 0.344 µM (active) | 40.1 µM (inactive) | 94.8 µM (inactive) | 84.3 µM (inactive) | 47.4 µM (inactive) | 36.6 µM (inactive) | 65.5 | 84.5 µM (inactive) | > 100 µM (inactive) | > 100 µM (inactive) | 39.4 µM (inactive) | > 100 µM (inactive) | 73.6 µM (inactive) | 68.7 µM (inactive) | 29.7 µM (inactive) |
| C=C1C(=O)O[C@@H]2[C@H]1C[C@@H](O)[C@H](C)[C@@](O)(C(=O)/C=C/C)[C@H]2OC(=O)C(C)CC (stereo not given in full) | 1.75 µM (inactive) | 2.42 µM (inactive) | 3.21 µM (inactive) | 22.5 µM (inactive) | 2.22 µM (inactive) | 14.8 µM (inactive) | 42.2 µM (inactive) | 4.27 µM (inactive) | 1.72 µM (inactive) | 15.2 µM (inactive) | 1.82 µM (inactive) | 2.44 | 4.81 µM (inactive) | 6.97 µM (inactive) | 7.85 µM (inactive) | 18.7 µM (inactive) | 3.1 µM (inactive) | 16.5 µM (inactive) | 3.26 µM (inactive) | 22.6 µM (inactive) |
| CC(C)N1CN(c2ccccc2)C2(CCN(CCCC(=O)c3ccc(F)cc3)CC2)C1=O | 0.483 µM (active) | 4.99 µM (inactive) | 3.78 µM (inactive) | 14 µM (inactive) | 24 µM (inactive) | 22 µM (inactive) | 42 µM (inactive) | 3.18 µM (inactive) | 10.3 µM (inactive) | 4.68 µM (inactive) | 19.4 µM (inactive) | 6.31 | 3.88 µM (inactive) | 3.26 µM (inactive) | 18.3 µM (inactive) | 2.97 µM (inactive) | 2.74 µM (inactive) | 18.9 µM (inactive) | 22 µM (inactive) | 36.1 µM (inactive) |
